Values joined by “and” are separate entries in the source; they are usually repeats but may differ in a detail not shown here. Equal entries are not always repeated. Inconclusive results and toxic doses are left out.
Tested on: L1210 leukemia ip in BDF1 mice, survival T/C
Assay: NCI In Vivo Anticancer Drug Screen. Data for tumor model L1210 Leukemia (intraperitoneal) in B6D2F1 (BDF1) mice
Conditions: endpoint: mean survival time, higher = longer survival
In short: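 Transplantable tumor model; survival measured in treated vs vehicle control mice. Value = treated/control.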

COC(C(=O)C(O)C(C)O)C1Cc2cc3cc(OC4CC(OC(C)=O)C(OC5CC(O)C(OC)C(C)O5)C(C)O4)cc(O)c3c(O)c2C(=O)C1OC1CC(OC2CC(OC3CC(C)(O)C(OC(=O)C(C)C)C(C)O3)C(O)C(C)O2)C(O)C(C)O1 (stereo not drawn)
T/C (dose: 0.09 mg/kg/injection, schedule: Q01DX017 (ip), vehicle: carboxymethylcellulose (CMC)): 97 % of control | T/C (dose: 0.18 mg/kg/injection, schedule: Q01DX017 (ip), vehicle: carboxymethylcellulose (CMC)): 109 % of control | T/C (dose: 0.18 mg/kg/injection, schedule: Q## X005 (ip), vehicle: carboxymethylcellulose (CMC)): 98 % of control | T/C (dose: 0.2 mg/kg/injection, schedule: Q01DX015 (ip), vehicle: carboxymethylcellulose (CMC)): 102 % of control | T/C (dose: 0.24 mg/kg/injection, schedule: Q## X024 (ip), vehicle: carboxymethylcellulose (CMC)): 92 % of control | T/C (dose: 0.25 mg/kg/injection, schedule: Q01DX009 (ip), vehicle: other): 103 % of control | T/C (dose: 0.25 mg/kg/injection, schedule: Q## X003 (ip), vehicle: carboxymethylcellulose (CMC)): 94 % of control | T/C (dose: 0.25 mg/kg/injection, schedule: Q#A X034 (ip), vehicle: carboxymethylcellulose (CMC)): 119 % of control | T/C (dose: 0.37 mg/kg/injection, schedule: Q01DX001 (ip), vehicle: carboxymethylcellulose (CMC)): 101 % of control | T/C (dose: 0.37 mg/kg/injection, schedule: Q01DX010 (ip), vehicle: saline): 116 % of control | T/C (dose: 0.37 mg/kg/injection, schedule: Q02DX005 (ip), vehicle: saline): 101 % of control | T/C (dose: 0.37 mg/kg/injection, schedule: Q02DX009 (ip), vehicle: carboxymethylcellulose (CMC)): 121 % of control | T/C (dose: 0.37 mg/kg/injection, schedule: Q## X003 (ip), vehicle: saline): 98 % of control | T/C (dose: 0.37 mg/kg/injection, schedule: Q## X005 (ip), vehicle: carboxymethylcellulose (CMC)): 107 % of control | T/C (dose: 0.4 mg/kg/injection, schedule: Q01DX015 (ip), vehicle: carboxymethylcellulose (CMC)): 120 % of control | T/C (dose: 0.48 mg/kg/injection, schedule: Q## X024 (ip), vehicle: carboxymethylcellulose (CMC)): 89 % of control | T/C (dose: 0.5 mg/kg/injection, schedule: Q01DX001 (ip), vehicle: saline): 103 % of control | T/C (dose: 0.5 mg/kg/injection, schedule: Q01DX005 (ip), vehicle: carboxymethylcellulose (CMC)): 106 % of control | T/C (dose: 0.5 mg/kg/injection, schedule: Q01DX006 (iv), vehicle: carboxymethylcellulose (CMC)): 104 % of control | T/C (dose: 0.5 mg/kg/injection, schedule: Q01DX009 (ip), vehicle: carboxymethylcellulose (CMC)): 113 % of control | T/C (dose: 0.5 mg/kg/injection, schedule: Q01DX009 (ip), vehicle: other): 122 % of control | T/C (dose: 0.5 mg/kg/injection, schedule: Q01DX015 (im), vehicle: carboxymethylcellulose (CMC)): 97 % of control | T/C (dose: 0.5 mg/kg/injection, schedule: Q01DX015 (sc), vehicle: carboxymethylcellulose (CMC)): 95 % of control | T/C (dose: 0.5 mg/kg/injection, schedule: Q01DX Z (ip), vehicle: saline): 123 % of control | T/C (dose: 0.5 mg/kg/injection, schedule: Q## X003 (ip), vehicle: carboxymethylcellulose (CMC)): 93 % of control | T/C (dose: 0.75 mg/kg/injection, schedule: Q01DX001 (ip), vehicle: carboxymethylcellulose (CMC)): 106 % of control | T/C (dose: 0.75 mg/kg/injection, schedule: Q02DX005 (ip), vehicle: saline): 116 % of control | T/C (dose: 0.75 mg/kg/injection, schedule: Q## X003 (ip), vehicle: saline): 105 % of control | T/C (dose: 0.75 mg/kg/injection, schedule: Q## X005 (ip), vehicle: carboxymethylcellulose (CMC)): 117 % of control | T/C (dose: 1.0 mg/kg/injection, schedule: Q01DX001 (ip), vehicle: other): 94 % of control | T/C (dose: 1.0 mg/kg/injection, schedule: Q01DX001 (ip), vehicle: saline): 114 % of control and 115 % of control | T/C (dose: 1.0 mg/kg/injection, schedule: Q01DX005 (ip), vehicle: carboxymethylcellulose (CMC)): 110 % of control | T/C (dose: 1.0 mg/kg/injection, schedule: Q01DX006 (iv), vehicle: carboxymethylcellulose (CMC)): 96 % of control | T/C (dose: 1.0 mg/kg/injection, schedule: Q01DX009 (ip), vehicle: carboxymethylcellulose (CMC)): 116 % of control | T/C (dose: 1.0 mg/kg/injection, schedule: Q01DX009 (ip), vehicle: other): 114 % of control | T/C (dose: 1.0 mg/kg/injection, schedule: Q01DX015 (im), vehicle: carboxymethylcellulose (CMC)): 101 % of control | T/C (dose: 1.0 mg/kg/injection, schedule: Q01DX015 (sc), vehicle: carboxymethylcellulose (CMC)): 105 % of control | T/C (dose: 1.0 mg/kg/injection, schedule: Q01DX017 (ip), vehicle: carboxymethylcellulose (CMC)): 163 % of control | T/C (dose: 1.0 mg/kg/injection, schedule: Q01DX Z (ip), vehicle: saline): 115 % of control | T/C (dose: 1.0 mg/kg/injection, schedule: Q02DX009 (ip), vehicle: carboxymethylcellulose (CMC)): 154 % of control | T/C (dose: 1.0 mg/kg/injection, schedule: Q## X002 (ip), vehicle: carboxymethylcellulose (CMC)): 88 % of control | T/C (dose: 1.0 mg/kg/injection, schedule: Q## X003 (ip), vehicle: carboxymethylcellulose (CMC)): 95 % of control | T/C (dose: 1.0 mg/kg/injection, schedule: Q## X008 (ip), vehicle: carboxymethylcellulose (CMC)): 88 % of control | T/C (dose: 1.0 mg/kg/injection, schedule: Q## X024 (ip), vehicle: carboxymethylcellulose (CMC)): 93 % of control | T/C (dose: 1.0 mg/kg/injection, schedule: Q#A X034 (ip), vehicle: carboxymethylcellulose (CMC)): 170 % of control | T/C (dose: 1.5 mg/kg/injection, schedule: Q01DX001 (ip), vehicle: carboxymethylcellulose (CMC)): 117 % of control | T/C (dose: 1.5 mg/kg/injection, schedule: Q01DX001 (ip), vehicle: saline): 114 % of control | T/C (dose: 1.5 mg/kg/injection, schedule: Q01DX013 (ip), vehicle: saline): 124 % of control | T/C (dose: 1.5 mg/kg/injection, schedule: Q02DX005 (ip), vehicle: saline): 122 % of control | T/C (dose: 1.5 mg/kg/injection, schedule: Q02DX009 (ip), vehicle: carboxymethylcellulose (CMC)): 162 % of control | T/C (dose: 1.6 mg/kg/injection, schedule: Q01DX013 (ip), vehicle: saline): 163 % of control | T/C (dose: 2.0 mg/kg/injection, schedule: Q01DX001 (ip), vehicle: other): 108 % of control | T/C (dose: 2.0 mg/kg/injection, schedule: Q01DX001 (ip), vehicle: saline): 116 % of control and 123 % of control | T/C (dose: 2.0 mg/kg/injection, schedule: Q01DX005 (ip), vehicle: carboxymethylcellulose (CMC)): 123 % of control | T/C (dose: 2.0 mg/kg/injection, schedule: Q01DX006 (iv), vehicle: carboxymethylcellulose (CMC)): 121 % of control | T/C (dose: 2.0 mg/kg/injection, schedule: Q01DX009 (ip), vehicle: other): 177 % of control | T/C (dose: 2.0 mg/kg/injection, schedule: Q01DX009 (ip), vehicle: saline): 166 % of control | T/C (dose: 2.0 mg/kg/injection, schedule: Q01DX015 (im), vehicle: carboxymethylcellulose (CMC)): 121 % of control | T/C (dose: 2.0 mg/kg/injection, schedule: Q01DX015 (ip), vehicle: carboxymethylcellulose (CMC)): 195 % of control | T/C (dose: 2.0 mg/kg/injection, schedule: Q01DX015 (oral), vehicle: carboxymethylcellulose (CMC)): 101 % of control | T/C (dose: 2.0 mg/kg/injection, schedule: Q01DX015 (sc), vehicle: carboxymethylcellulose (CMC)): 114 % of control | T/C (dose: 2.0 mg/kg/injection, schedule: Q01DX017 (ip), vehicle: carboxymethylcellulose (CMC)): 184 % of control | T/C (dose: 2.0 mg/kg/injection, schedule: Q01DX Z (ip), vehicle: saline): 106 % of control | T/C (dose: 2.0 mg/kg/injection, schedule: Q02DX009 (ip), vehicle: carboxymethylcellulose (CMC)): 192 % of control | T/C (dose: 2.0 mg/kg/injection, schedule: Q## X002 (ip), vehicle: carboxymethylcellulose (CMC)): 100 % of control | T/C (dose: 2.0 mg/kg/injection, schedule: Q## X003 (ip), vehicle: carboxymethylcellulose (CMC)): 113 % of control | T/C (dose: 2.0 mg/kg/injection, schedule: Q## X005 (ip), vehicle: carboxymethylcellulose (CMC)): 150 % of control | T/C (dose: 2.0 mg/kg/injection, schedule: Q## X008 (ip), vehicle: carboxymethylcellulose (CMC)): 97 % of control | T/C (dose: 2.0 mg/kg/injection, schedule: Q## X016 (ip), vehicle: carboxymethylcellulose (CMC)): 97 % of control | T/C (dose: 2.0 mg/kg/injection, schedule: Q## X024 (ip), vehicle: carboxymethylcellulose (CMC)): 103 % of control | T/C (dose: 3.0 mg/kg/injection, schedule: Q01DX001 (ip), vehicle: carboxymethylcellulose (CMC)): 115 % of control | T/C (dose: 3.0 mg/kg/injection, schedule: Q01DX001 (ip), vehicle: saline): 118 % of control | T/C (dose: 3.0 mg/kg/injection, schedule: Q02DX009 (ip), vehicle: carboxymethylcellulose (CMC)): 151 % of control | T/C (dose: 3.0 mg/kg/injection, schedule: Q## X005 (ip), vehicle: carboxymethylcellulose (CMC)): 152 % of control | T/C (dose: 3.2 mg/kg/injection, schedule: Q01DX015 (ip), vehicle: carboxymethylcellulose (CMC)): 163 % of control | T/C (dose: 4.0 mg/kg/injection, schedule: Q01DX001 (ip), vehicle: other): 97 % of control | T/C (dose: 4.0 mg/kg/injection, schedule: Q01DX001 (ip), vehicle: saline): 104 % of control | T/C (dose: 4.0 mg/kg/injection, schedule: Q01DX006 (iv), vehicle: carboxymethylcellulose (CMC)): 122 % of control | T/C (dose: 4.0 mg/kg/injection, schedule: Q01DX009 (ip), vehicle: carboxymethylcellulose (CMC)): 114 % of control | T/C (dose: 4.0 mg/kg/injection, schedule: Q01DX009 (ip), vehicle: other): 101 % of control | T/C (dose: 4.0 mg/kg/injection, schedule: Q01DX015 (im), vehicle: carboxymethylcellulose (CMC)): 94 % of control | T/C (dose: 4.0 mg/kg/injection, schedule: Q01DX015 (oral), vehicle: carboxymethylcellulose (CMC)): 104 % of control | T/C (dose: 4.0 mg/kg/injection, schedule: Q01DX015 (sc), vehicle: carboxymethylcellulose (CMC)): 115 % of control | T/C (dose: 4.0 mg/kg/injection, schedule: Q02DX009 (ip), vehicle: carboxymethylcellulose (CMC)): 259 % of control | T/C (dose: 4.0 mg/kg/injection, schedule: Q## X002 (ip), vehicle: carboxymethylcellulose (CMC)): 106 % of control | T/C (dose: 4.0 mg/kg/injection, schedule: Q## X005 (ip), vehicle: carboxymethylcellulose (CMC)): 170 % of control | T/C (dose: 4.0 mg/kg/injection, schedule: Q## X008 (ip), vehicle: carboxymethylcellulose (CMC)): 104 % of control | T/C (dose: 4.0 mg/kg/injection, schedule: Q## X016 (ip), vehicle: carboxymethylcellulose (CMC)): 97 % of control | T/C (dose: 6.0 mg/kg/injection, schedule: Q02DX009 (ip), vehicle: carboxymethylcellulose (CMC)): 113 % of control | T/C (dose: 8.0 mg/kg/injection, schedule: Q01DX001 (ip), vehicle: carboxymethylcellulose (CMC)): 98 % of control | T/C (dose: 8.0 mg/kg/injection, schedule: Q01DX001 (ip), vehicle: other): 101 % of control | T/C (dose: 8.0 mg/kg/injection, schedule: Q01DX015 (oral), vehicle: carboxymethylcellulose (CMC)): 97 % of control | T/C (dose: 8.0 mg/kg/injection, schedule: Q## X002 (ip), vehicle: carboxymethylcellulose (CMC)): 116 % of control | T/C (dose: 16.0 mg/kg/injection, schedule: Q01DX015 (oral), vehicle: carboxymethylcellulose (CMC)): 101 % of control | T/C (dose: 32.0 mg/kg/injection, schedule: Q01DX015 (oral), vehicle: carboxymethylcellulose (CMC)): 109 % of control | T/C (dose: 62.5 micrograms/kg/injection, schedule: Q01DX Z (ip), vehicle: saline): 108 % of control | T/C (dose: 125.0 micrograms/kg/injection, schedule: Q01DX Z (ip), vehicle: saline): 109 % of control | T/C (dose: 250.0 micrograms/kg/injection, schedule: Q01DX Z (ip), vehicle: saline): 114 % of control

Reference: PubChem BioAssay AID248 (DTP/NCI, 2004)
